What was measured:
S. agalactiae = experiment: In vivo anti-microbial efficacy against bacteria (ED50')
Method: (§1) For example, the anti-microbial activity of calcium myxin dihydrate, prepared by the method of this invention, is evaluated and compared to that of myxin itself both in vivo against 4 strains of bacteria and in vitro against yeast and fungus infections.

S. aureus = experiment: as above
Method: as §1

E. coli = experiment: as above
Method: as §1

P. aeruginosa = experiment: as above
Method: as §1

Solubility in water = type: physicochemical

| Compound | ED50' (S. agalactiae) [µg/mL] | ED50' (S. aureus) [µg/mL] | ED50' (E. coli) [µg/mL] | ED50' (P. aeruginosa) [µg/mL] | solubility in water (Solubility in water) |
| --- | --- | --- | --- | --- | --- |
| 6-methoxy-1-phenazinol 5,10-dioxide, calcium dihydrate complex [Calcium Myxin Dihydrate] | < 4 | < 20 | 60 | 20 |  |
| COc1cccc2c1[n+]([O-])c1cccc(O)c1[n+]2[O-] [Myxin, 6-methoxy-1-phenazinol 5,10-dioxide] |  |  |  |  | very slightly soluble |

Source: patent publication US4003891A, “Preparation of metal complexes of 6-methoxy-1-phenazinol 5,10 dioxide” (Hoffmann-La Roche Inc., priority 1975, dated 1977)
